Test results as given in patent US20100261711A1, “SELECTIVE ANTICONVULSANT AGENTS AND THEIR USES” (WiSys Technology Foundation, priority 2009, published 2010).

What was measured:
MES-induced seizures = assay: Maximal electroshock test (MES), mice; type: in vivo; details: Mice IP, 100 mg/kg
Experimental: (§1) The benzodiazepine derivative compounds selective for GABAa receptor subunits were tested for the ability to suppress seizures in several standard rat and mouse models of epilepsy. […] The standard models incorporated into anticonvulsant screening include the maximal electroshock test (MES), the subcutaneous Metrazol test (scMet), and evaluations of toxicity (TOX). The data for each condition is presented as a ratio of either the number of animals protected or toxic (loss of locomotor activity) over the number of animals tested at a given time point and dose.
The MES is a model for generalized tonic-clonic seizures and provides an indication of a compound's ability to prevent seizure spread when all neuronal circuits in the brain are maximally active. These seizures are highly reproducible and are electrophysiologically consistent with human seizures. For all tests based on MES convulsions, 60 Hz of alternating current (50 mA in mice, 150 in rats) is delivered for by corneal electrodes which have been primed with an electrolyte solution containing an anesthetic agent (0.5% tetracaine HCL). For Test 1, mice are tested at various intervals following doses of 30, 100 and 300 mg/kg of test compound given by ip injection of a volume of 0.01 mL/g. In Test 2, rats are tested after a dose of 30 mg/kg (po) in a volume of 0.04 mL/g. Test 8 uses varying doses administered via i.p. injection, again in a volume of 0.04 ml/g. […] In Antiepileptic Drugs, Levy, R. H. M., Meldrum, B. S., Eds.; Raven Press: New York, pp 99-110, 1995b.).

[1] = system: Metrazol-induced clonic seizures; assay: Subcutaneous Metrazol test (scMet), mice; type: in vivo
Experimental: as §1
(§2) Subcutaneous injection of the convulsant Metrazol produces clonic seizures in laboratory animals. […] Animals are pretreated with various doses of the test compound (in a similar manner to the MES test, although a dose of 50 mg/kg (po) is the standard for Test 2 scMet). At the previously determined TPE of the test compound, the dose of Metrazol which will induce convulsions in 97% of animals (CD97: 85 mg/kg mice) is injected into a loose fold of skin in the midline of the neck. […] An episode of clonic spasms, approximately 3-5 seconds, of the fore and/or hindlimbs, jaws, or vibrissae is taken as the endpoint.

[2] = system: minimal muscular or neurological impairment; assay: Toxicity (TOX), rotorod procedure, mice; type: in vivo
Experimental: as §1
(§3) To assess a compound's undesirable side effects (toxicity), animals are monitored for overt signs of impaired neurological or muscular function. […] When a mouse is placed on a rod that rotates at a speed of 6 rpm, the animal can maintain its equilibrium for long periods of time. The animal is considered toxic if it falls off this rotating rod three times during a 1-min period. In rats, minimal motor deficit is indicated by ataxia, which is manifested by an abnormal, uncoordinated gait. Rats used for evaluating toxicity are examined before the test drug is administered, since individual animals may have peculiarities in gait, equilibrium, placing response, etc., which might be attributed erroneously to the test substance.

[3] = system: Metrazol-induced clonic seizures; assay: Subcutaneous Metrazol test (scMet), rats; type: in vivo; details: Rat IP, 100 mg/kg
Experimental: as §1, §2

[4] = system: minimal motor deficit (ataxia, abnormal gait); assay: Toxicity (TOX), minimal motor deficit, rats; type: in vivo; details: Rat IP, 100 mg/kg
Experimental: as §1, §3

[5] = molecular target: T1, GABAA/α1 (α1β3γ2 GABAA receptors) (Homo sapiens, UniProt P14867+P18507); assay: Competitive binding assay, [3H]flunitrazepam; details: Binding Affinity at GABAA/α1, αxβ3γ2, [3H]flunitrazepam competition
T1 construct: expressed in transfected cells
Experimental: (§4) The GABAA subunit selectivity of several compounds prepared as described above were determined using competitive binding assays. […] Membranes were harvested with a Brandel cell harvester followed by three ice-cold washes onto polyethyleneimine-pretreated (0.3%) Whatman GF/C filters. Filters were dried overnight and then soaked in Ecoscint, a liquid scintillation cocktail (National Diagnostics; Atlanta, Ga.). Bound radioactivity was quantified by liquid scintillation counting. Membrane protein concentrations were determined using an assay kit from Bio-Rad (Hercules, Calif.) with bovine serum albumin as the standard.

[6] = molecular target: T2, GABAA/α2 (α2β3γ2 GABAA receptors) (Homo sapiens, UniProt P18507+P47869); assay: Competitive binding assay, [3H]flunitrazepam; details: Binding Affinity at GABAA/α2, αxβ3γ2, [3H]flunitrazepam competition
T2 construct: expressed in transfected cells
Experimental: as §4

[7] = molecular target: T3, GABAA/α5 (α5β3γ2 GABAA receptors) (Homo sapiens, UniProt P18507+P31644); assay: Competitive binding assay, [3H]flunitrazepam; details: Binding Affinity at GABAA/α5, αxβ3γ2, [3H]flunitrazepam competition
T3 construct: expressed in transfected cells
Experimental: as §4

[8] = molecular target: T4, GABAA/α6 (α6β3γ2 GABAA receptors) (Homo sapiens, UniProt P18507+Q16445); assay: Competitive binding assay, [3H]flunitrazepam
T4 construct: expressed in transfected cells
Experimental: as §4

[9] = Mice, 50 mg/kg PO (Mice IP), 0.5 hr
[10] = Mice, 50 mg/kg PO (Mice IP), 4.0 hr

CN1C(=O)CN=C(c2ccccn2)c2cc(C#C[Si](C)(C)C)ccc21
melting point: 194 to 195 °C

CNC1=Nc2ccc(C#C[Si](C)(C)C)cc2C(c2ccccc2)=NC1
melting point: 210 to 211 °C

C#Cc1ccc2c(c1)C(c1ccccc1)=NCc1c(C(=O)OCC)ncn1-2 [XHe-II-053 (7), Ethyl 8-acetylenyl-6-phenyl-4H-benzo[f]imidazo[1,5-a][1,4]diazepine-3-carboxylate]
MES, animals protected/tested (MES-induced seizures; 0.5 hr): 0/3 | MES, animals protected/tested (MES-induced seizures; 4.0 hr): 0/3 | scMet, animals protected/tested ([1]; Mice IP, 100 mg/kg, 0.5 hr): 0/1 | scMet, animals protected/tested ([1]; Mice IP, 100 mg/kg, 4.0 hr): 0/1 | scMet, animals protected/tested [1, 9]: 1/4 | scMet, animals protected/tested [1, 10]: 0/4 | TOX (Rotorod Test), animals toxic/tested ([2]; Mice IP, 100 mg/kg, 0.5 hr): 0/8 | TOX (Rotorod Test), animals toxic/tested ([2]; Mice IP, 100 mg/kg, 4.0 hr): 0/4 | TOX (Rotorod Test), animals toxic/tested [2, 9]: 2/4 | TOX (Rotorod Test), animals toxic/tested [2, 10]: 0/4 | scMet, animals protected/tested ([3]; 0.5 hr): 1/4 | scMet, animals protected/tested ([3]; 4.0 hr): 0/4 | TOX (Rotorod Test), animals toxic/tested ([4]; 0.5 hr): 2/4 | TOX (Rotorod Test), animals toxic/tested ([4]; 4.0 hr): 0/4

O=C(OCC(Cl)(Cl)Cl)c1ncn2c1CN=C(c1ccccc1)c1cc(Br)ccc1-2
melting point: 113 to 116 °C

O=C(OCC(F)(F)F)c1ncn2c1CN=C(c1ccccc1F)c1cc(Br)ccc1-2 [JYI-49, Trifluoroethyl-8-bromo-6-(2′-fluorophenyl)-4H-benzo[f]imidazo[1,5-a][1,4]diazepine-3-carboxylate]
Ki [5]: 1.87 nM | Ki [6]: 2.38 nM | Ki [7]: 6.7 nM | Ki [8]: 3.39 µM

CNC1=Nc2ccc(Br)cc2C(c2ccccc2)=NC1
melting point: 234 to 235 °C

C[Si](C)(C)C#Cc1ccc2c(c1)C(c1ccccn1)=NCC(=O)N2
melting point: 242 to 243 °C

C#Cc1ccc2c(c1)C(c1ccccn1)=NCC(=O)N2C
melting point: 190 to 191 °C
